Literature values, collected in patent US7052486B2, “Method and system for treating depressive and anxiety disorders” (Medtronic, Inc., priority 2003, dated 2006).

Experiments:
depression = conditions: administered parenterally (IV or SQ)
refractory depression = conditions: single intrathecal bolus
[1] = test system: refractory obsessive-compulsive disorder (OCD); conditions: chronic parenteral use

## NC(=O)[C@@H]1CCCN1C(=O)[C@H](Cc1cnc[nH]1)NC(=O)[C@@H]1CCC(=O)N1 [TRH, Thyrotropin-releasing hormone]
depression
  response in depression: unpredictable responses
Refractory depression
  patients successfully treated for refractory depression: 7 out of 10
  time to rapid and dramatic improvement in the symptoms of severe depression: < 24 h

## CNS(=O)(=O)Cc1ccc2[nH]cc(CCN(C)C)c2c1 [sumatriptan]
[1]
  OCD behaviors: only modest reductions
  symptoms of depression as measured by the Hamilton scale: significant improvements
